# Like-named read-outs stand apart in the source and are kept apart here.
# Legend:
# [1] = system: Clostridium ljungdahlii DSM13583 pMTL83156-groESL transformants
# [2] = system: C. autoethanogenum DSM10061 pMTL83156-grpE-dnaK-dnaJ transformant; details: 5 g/L, 10 g/L and 25 g/L ethanol, up to 102 h post inoculation
# Procedure: (§1) Anaerobic ethanol was administered at 12 hour post inoculation.
# (§2) The experiment was first conducted as described above using PETC medium and autotrophic conditions with CO as substrate (FIG. 16a) and afterwards repeated using a different growth medium and heterotrophic conditions with fructose as substrate to rule out the effect of the growth media and substrate (FIG. 16b). A plasmid control was included. […] For ethanol challenge assay, 500 μL of two day old cultures were inoculated into each of five 60 mL serum bottles containing 20 mL of selective MMYF medium and incubated at 37° C. without agitation. […] Static incubation at 37° C. was allowed for 80-100 hours and the growth was monitored by measuring the optical density at a wavelength of 600 nm using Jenway 7300 spectrophotometer. Microscope examinations were routinely carried out.
# The experiment was first conducted as described above using PETC medium and autotrophic conditions with CO as substrate (FIG. 16a) and afterwards repeated using a different growth medium and heterotrophic conditions with fructose as substrate to rule out the effect of the growth media and substrate (FIG. 16b). A plasmid control was included. […] Static incubation at 37° C. was allowed for 80-100 hours and the growth was monitored by measuring the optical density at a wavelength of 600 nm using Jenway 7300 spectrophotometer. […]
# [3] = system: C. autoethanogenum DSM10061 plasmid control (pMTL83157) transformants; assay: microbe, parasite or virus in culture
# Procedure: as §1, §2
# (§3) The experiment was first conducted as described above using PETC medium and autotrophic conditions with CO as substrate (FIG. 16a) and afterwards repeated using a different growth medium and heterotrophic conditions with fructose as substrate to rule out the effect of the growth media and substrate (FIG. 16b). A plasmid control was included. Both plasmid control (pMTL83157) transformants and chaperone over-expressing (pMTL83156-groESL) transformants were cultured anaerobically in MMYF medium supplemented with freshly prepared 7.5 μg/mL thiamphenicol (final concentration). For ethanol challenge assay, 500 μL of two day old cultures were inoculated into each of five 60 mL serum bottles containing 20 mL of selective MMYF medium and incubated at 37° C. without agitation. […] Static incubation at 37° C. was allowed for 80-100 hours and the growth was monitored by measuring the optical density at a wavelength of 600 nm using Jenway 7300 spectrophotometer. Microscope examinations were routinely carried out.
# majority of bacteria = details: cited from earlier work
# [4] = system: Clostridium ljungdahlii DSM13583; details: 50 g/L ethanol, serum bottle studies
# Procedure: (§4) The ethanol tolerance of three acetogenic strains Clostridium ljungdahlii DSM13583, Clostridium autoethanogenum DSM10061, and C. autoethanogenum DSM23693 was tested in serum bottles.
# (§5) Ethanol was added in various concentrations to an active growing culture at 37° C. in PETC medium (Table 1) with 30 psi steel mill gas as substrate. The media was prepared by using standard anaerobic techniques (Hungate R E. A roll tube method for cultivation of strict anaerobes, In Norris J R and Ribbons D W (eds.), Methods in Microbiology, vol. 3B. Academic Press, N Y, 1969: 117-132; Breznak J A and Costilow R N, Physicochemical factors in growth, In Gerhardt P (ed.), Methods for general and molecular bacteriology. American Society for Microbiology, Washington, 1994: 137-154). […] Slightly acidified water was used (0.005 M H2SO4) as mobile phase with a flow rate of 0.7 ml/min. To remove proteins and other cell residues, 400 μl samples were mixed with 100 μl of a 2% (w/v) 5-Sulfosalicylic acid and centrifuged at 14,000×g for 3 min to separate precipitated residues. 10 μl of the supernatant were then injected into the HPLC for analyses.
# [5] = system: Clostridium autoethanogenum DSM10061
# Procedure: as §4, §5
# [6] = system: Clostridium autoethanogenum DSM23693
# Procedure: as §4, §5
# [7] = system: Clostridium ljungdahlii pMTL83155-groESL (phosphotransacetylase promoter); details: construct with the phosphotransacetylase/acetate kinase operon promoter
# Procedure: In addition, the effect of different promoter sequences was evaluated. The two strong C. autoethanogenum promoters of pyruvate:ferredoxin oxidoreductase and phosphotransacetylase/acetate kinase operon were used.
# [8] = system: Clostridium ljungdahlii DSM13583 pMTL83157 plasmid control
# [9] = system: Zymomonas mobilis or Lactococcus strains; details: cited from earlier work
# [10] = system: C. autoethanogenum DSM23693 wild-type (WT), parental; details: PETC media, 30 psi steel mill gas
# Procedure: (§6) To investigate whether overexpression of GroESL enhances ethanol tolerance of C. autoethanogenum DSM23693, both wild-type (WT), i.e. parental microorganism and transformed strain carrying plasmid pMTL85246-GroESL were challenged with different concentrations of ethanol (FIG. 8).
# (§7) Growth experiments in triplicates were carried out in 50 ml PETC media (Table 1) in serum bottles sealed with rubber stoppers and 30 psi steel mill gas (collected from New Zealand Steel site in Glenbrook, NZ; composition: 44% CO, 32% N2, 22% CO2, 2% H2) in the headspace as sole energy and carbon source. […] All cultures were inoculated to the same optical density using the same pre-culture for either wild-type (parental) or transformed strain. Changes in biomass were measured spectrophotometrically at 600 nm until growth ceased. The maximum biomass of each culture was compared with the unchallenged culture.
# [11] = system: C. autoethanogenum DSM23693 transformed strain carrying plasmid pMTL85246-GroESL; details: PETC media, 30 psi steel mill gas, biomass at 600 nm
# Procedure: as §6, §7
# [12] = system: C. autoethanogenum DSM10061 chaperone over-expressing (pMTL83156-groESL) transformants; details: for OD600 reached: 37 h post inoculation, MMYF medium
# Procedure: as §2, §3
# [13] = system: Clostridium ljungdahlii DSM13583 pMTL83156-grpE-dnaK-dnaJ transformants
# [14] = system: Two species of the genus Clostridium; details: cited from earlier work
# [15] = system: Clostridium acetobutylicum overproducing GroESL; details: overproduction of GroESL; cited from earlier work
# [16] = 5 g/L ethanol added after 12 hours, 66 hours
# [17] = Clostridium autoethanogenum, DSM10061, read-out: OD600 inhibition (% reduction in OD600 relative to unchallenged culture)
# [18] = 50 g/L ethanol, serum bottle studies
compound,measurement,setting,value
CCO [ethanol],change in OD600,[1],reduction in OD600
same,ethanol tolerance over the wild-type,[1],significantly enhanced
same,time to reach OD600 of ~0.6 relative to plasmid control,[1],significantly earlier
same,OD600,[1]; [16],0.97
same,OD600,"[1]; 25 g/L ethanol added after 12 hours, 36 h post inoculation",0.42
same,growth inhibition by ethanol challenge relative to plasmid control,[2],significantly less inhibited
same,time to exceed OD600 0.25,"[3]; 5 g/L ethanol added 12 hour post inoculation, MMYF medium",more than 102 h
same,OD600 reached,"[3]; 25 g/L ethanol added 12 hour post inoculation, 78 h post inoculation, MMYF medium",0.29
same,inhibition at 10000 µg/mL,[3]; [17],74%
same,inhibition at 25000 µg/mL,[3]; [17],79%
same,maximum tolerated ethanol,majority of bacteria,4-7%
same,growth in presence of ethanol,[4],none of the strains was able to grow
same,growth in presence of ethanol,[5]; 25 g/L ethanol,unable to grow
same,growth in presence of ethanol,[5]; [18],none of the strains was able to grow
same,natural tolerance to ethanol,[6]; 25 g/L ethanol,tolerant
same,growth in presence of ethanol,[6]; [18],none of the strains was able to grow
same,ethanol concentration at which growth was inhibited,"[6]; serum bottles, PETC medium, 37° C., 30 psi steel mill gas",10-20 g/l
same,ethanol tolerance over the wild-type,[7],didn't enhance ethanol tolerance
same,change in OD600,[8],reduction in OD600
same,OD600,[8]; [16],~0.66
same,OD600,"[8]; 10 g/L ethanol added after 12 hours, 101 h post inoculation",0.67
same,OD600,"[8]; 25 g/L ethanol added after 12 hours, 30 h post inoculation",0.20
same,tolerated ethanol,[9],more than 10%
same,doubling of culture when challenged with ethanol,"[10]; 45 g/l ethanol, biomass at 600 nm",0.39 doubling
same,biomass change when ethanol was added,[10]; 60 g/l ethanol,biomass even dropped
same,growth after addition of ethanol,[10]; 60 g/l ethanol,ceased
same,doublings of culture when challenged with ethanol,[11]; 45 g/l ethanol,2.14 times
same,doublings of culture when challenged with ethanol,[11]; 60 g/l ethanol,1.27 times
same,OD600 reached,[12]; 5 g/L ethanol added 12 hour post inoculation,0.38
same,growth relative to plasmid control,"[12]; 5 g/L, 10 g/L and 25 g/L ethanol at 12 hour post inoculation",significantly earlier growth
same,growth in presence of ethanol,[12]; 25 g/L ethanol,able to grow
same,OD600 reached,[12]; 25 g/L ethanol added 12 hour post inoculation,0.31
same,growth in presence of ethanol,[12]; 50 g/L ethanol,able to grow
same,biomass relative to plasmid control,[12]; all levels of ethanol challenge,higher biomass
same,OD600 relative to plasmid controls,[13],higher OD600 than plasmid controls
same,time to reach OD600 of ~0.6 relative to plasmid control,[13],significantly earlier
same,OD600,[13]; [16],1.12
same,OD600,"[13]; 10 g/L ethanol added after 12 hours, 114 h post inoculation",1.15
same,OD600,"[13]; 25 g/L ethanol added after 12 hours, 36 hrs. post inoculation",0.48
same,increase in OD600,[13]; 50 g/L ethanol challenge at 12 hour post inoculation,0.096
butanol,tolerated butanol level,[14],around 1.5%
same,reduction of inhibition by butanol challenge compared to the wild-type,[15],up to 85%
same,tolerated butanol level (hardly exceeded),majority of bacteria,1.5-2.5%
